Assay results published in patent publication US20190365843A1, “Antimicrobial Activity of Bioactive Compounds and Their Derivatives” (priority 2018, published 2019).

Columns and labels:
S. aureus = test: Agar diffusion growth inhibition zone, S. aureus; assay type: cell-based, Staphylococcus aureus; conditions: for zone of inhibition at 100 mg/mL / zone of inhibition at 150 mg/mL: Staphylococcus aureus
Procedure: (§1) Among the bacterial agents tested Gram positive and Gram negative bacterial groups represented by Staphylococcus aureus and Enterococcus species and pathogenic members of Enterobacteriaceae, Vibronaceae, Aeromonadaceae, Pseudomonadaceae were tested. Freshly sub-cultured bacterial strains were inoculated into peptone water and incubated for 4 hours at 37° C. and adjusted to a turbidity of 0.5 (Gram Negative Bacilli), 1 (Gram Positive Cocci) and 4 (Pus cells, GNB, & few Budding yeast cells) Mc Farland standards (10^8 CFU/ml) respectively.
(§2) The different bioactive compounds and their derivatives were dissolved and diluted with solvents (DMSO), number of subsequent dilutions was performed to obtain different concentrations of the bioactive compounds and their derivatives. (Working Concentrations).
(§3) Agar well diffusion method is widely used to evaluate the antimicrobial activity of plants or other synthetic products. The suspension (microbial inoculum) was used to inoculate into Muller Hinton Agar Petri plates by lawn culture. Well (diameter 6 mm) were punched in the agar by sterile borer and filled with 50 μl of dissolved extracts. Plates were incubated in incubator at 37° C. for 24 hours and measured the growth inhibition zone diameters in mm compared with that of control (DMSO) showing no growth.
(§4) The bioactive compounds were tested with desired concentrations in 6 mm filter paper discs (Whatman, no. 3) were impregnated with 10 μL of each of the different dilutions. The discs were allowed to remain at room temperature until complete diluent evaporation and kept under refrigeration until ready to be used. 10 μL of diluents used to products were used as control. Tests were performed by Agar disk-diffusion testing method, which is the official method used in many clinical microbiology laboratories for routine antimicrobial susceptibility testing.
(§5) Similar to the procedure used in Agar well diffusion method, the suspension (microbial inoculum) was used to inoculate into Muller Hinton Agar Petri plates by lawn culture. Then, filter paper discs (about 6 mm in diameter), containing the test compound at a desired concentration, were placed on the agar surface. The Petri dishes were incubated under suitable incubation conditions.
(§6) Bioactive compounds showing zone of inhibition beyond the size of 6 mm are considered to be having an anti-microbial activity.

Enterococcus sp. = test: Agar diffusion growth inhibition zone, Enterococcus sp.; assay type: cell-based, Enterococcus species; conditions: 6 mm = no activity
Procedure: as §1, §2, §3, §4, §5, §6

Salmonella typhimurium = test: Agar diffusion growth inhibition zone, Salmonella typhimurium; assay type: cell-based; conditions: 6 mm = no activity; for zone of inhibition at 100 mg/mL / zone of inhibition at 150 mg/mL: Salmonella enterica
Procedure: as §1, §2, §3, §4, §5, §6

Proteus sp. = test: Agar diffusion growth inhibition zone, Proteus sp.; assay type: cell-based, Proteus species
Procedure: as §1, §2, §3, §4, §5, §6

E. coli ATCC 25922 = test: Agar diffusion growth inhibition zone, E. coli ATCC 25922; assay type: cell-based; conditions: 6 mm = no activity; for zone of inhibition at 100 mg/mL / zone of inhibition at 150 mg/mL: Escherichia coli; for zone of inhibition at 100 mg/mL: ATCC25922, 100 mg; for zone of inhibition at 150 mg/mL: ATCC25922, 150 mg
Procedure: as §1, §2, §3, §4, §5, §6

EAEC = test: Agar diffusion growth inhibition zone, EAEC; assay type: cell-based, Enteroaggregative E. coli; conditions: for zone of inhibition at 100 mg/mL / zone of inhibition at 150 mg/mL: Escherichia coli; for zone of inhibition at 100 mg/mL / zone of inhibition at 150 mg/mL / zone of inhibition: 6 mm = no activity
Procedure: as §1, §2, §3, §4, §5, §6

ETEC = test: Agar diffusion growth inhibition zone, ETEC; assay type: cell-based, Enterotoxigenic E. coli; conditions: for inhibition of growth / zone of inhibition: ETEC; for zone of inhibition at 100000 µg/disc / zone of inhibition at 150000 µg/disc: Escherichia coli; for zone of inhibition: 6 mm = no activity
Procedure: (§7) Agar well diffusion method is widely used to evaluate the antimicrobial activity of plants or other synthetic products. The suspension (microbial inoculum) was used to inoculate into Muller Hinton Agar Petri plates by lawn culture. Well (diameter 6 mm) were punched in the agar by sterile borer and filled with 50 μl of dissolved extracts. Plates were incubated in incubator at 37° C. for 24 hours and measured the growth inhibition zone diameters in mm compared with that of control (DMSO) showing no growth. The antimicrobial agent diffuses in the agar medium and inhibits the growth of the microbial strain tested (Valgas et al., (2016) Methods for in vitro evaluating antimicrobial activity: A review. Journal of Pharmaceutical Analysis. 6(2):71-9).
(§8) Similar to the procedure used in Agar well diffusion method, the suspension (microbial inoculum) was used to inoculate into Muller Hinton Agar Petri plates by lawn culture. Then, filter paper discs (about 6 mm in diameter), containing the test compound at a desired concentration, were placed on the agar surface. The Petri dishes were incubated under suitable incubation conditions. Generally, antimicrobial agent diffuses into the agar and inhibits germination and growth of the test microorganism and then the diameters of inhibition growth zones are measured (Valgas et al., (2007) Screening methods to determine antibacterial activity of natural products. Brazilian Journal of Microbiology. 38:369-80; Balouiri M et al., (2016) Methods for in vitro evaluating antimicrobial activity: A review. Journal of Pharmaceutical Analysis. 6(2):71-9).

Shigella sp. = test: Agar diffusion growth inhibition zone, Shigella sp.; assay type: cell-based, Shigella species; conditions: for zone of inhibition at 100000 µg/disc / zone of inhibition at 150000 µg/disc: Shigella; for zone of inhibition: Shigella sp., 6 mm = no activity
Procedure: as §7, §8

Pseudomonas sp. = test: Agar diffusion growth inhibition zone, Pseudomonas sp.; assay type: cell-based, Pseudomonas species; conditions: for zone of inhibition at 100000 µg/disc / zone of inhibition at 150000 µg/disc: Pseudomonas; for zone of inhibition: Pseudomonas sp., 6 mm = no activity
Procedure: as §7, §8

Klebsiella sp. = test: Agar diffusion growth inhibition zone, Klebsiella sp.; assay type: cell-based, Klebsiella species; conditions: 6 mm = no activity
Procedure: as §1, §2, §3, §4, §5, §6

Aeromonas sp. = test: Agar diffusion growth inhibition zone, Aeromonas sp.; assay type: cell-based, Aeromonas species; conditions: for zone of inhibition at 100 mg/mL / zone of inhibition at 150 mg/mL / zone of inhibition: Aeromonas sp., 6 mm = no activity
Procedure: as §1, §2, §3, §4, §5, §6

Pleisiomonas sp. = test: Agar diffusion growth inhibition zone, Pleisiomonas sp.; assay type: cell-based, Pleisiomonas species; conditions: for zone of inhibition at 100 mg/mL / zone of inhibition at 150 mg/mL / zone of inhibition: Pleisiomonas sp., 6 mm = no activity; for inhibition of growth: Plesiomonas species
Procedure: as §1, §2, §3, §4, §5, §6

Candida abicans = test: Agar diffusion growth inhibition zone, Candida abicans; assay type: cell-based, Candida albicans; conditions: 6 mm = no activity
Procedure: as §1, §2, §3, §4, §5, §6

Vibrio cholera = test: Agar diffusion growth inhibition zone, Vibrio cholera; assay type: cell-based, Vibrio cholerae; conditions: for zone of inhibition at 100000 µg/disc / zone of inhibition at 150000 µg/disc: Vibrio cholerae; for zone of inhibition: Vibrio cholera, 6 mm = no activity
Procedure: as §7, §8

Citrobacter sp. = test: Agar diffusion growth inhibition zone, Citrobacter sp.; assay type: cell-based, Citrobacter species; conditions: 6 mm = no activity
Procedure: as §1, §2, §3, §4, §5, §6

[1] = Proteus sp., 150 mg, 6 mm = no activity

## CCOC(=O)Oc1ccc(/C=C/C(=O)COC(=O)/C=C/c2ccc(OC(=O)OCC)c(OC)c2)cc1OC [compound 7, Diethylcalebin-A dicarbonate]
S. aureus; 100 mg, 6 mm = no activity
  zone of inhibition at 100 mg/mL: 6 mm
S. aureus; 150 mg, 6 mm = no activity
  zone of inhibition at 150 mg/mL: 6 mm
Enterococcus sp.; 100 mg
  zone of inhibition at 100 mg/mL: 6 mm
Enterococcus sp.; 150 mg
  zone of inhibition at 150 mg/mL: 6 mm
Salmonella typhimurium; 100 mg
  zone of inhibition at 100 mg/mL: 6 mm
Salmonella typhimurium; 150 mg
  zone of inhibition at 150 mg/mL: 6 mm
Proteus sp.; [1]
  zone of inhibition at 150 mg/mL: 6 mm
E. coli ATCC 25922
  zone of inhibition at 100 mg/mL: 6 mm
  zone of inhibition at 150 mg/mL: 6 mm
EAEC
  inhibition of growth: inhibited
EAEC; 100 mg
  zone of inhibition at 100 mg/mL: 9 mm
EAEC; 150 mg
  zone of inhibition at 150 mg/mL: 9 mm
ETEC
  inhibition of growth: significantly inhibited the growth
  zone of inhibition at 100000 µg/disc: 10 mm
  zone of inhibition at 150000 µg/disc: 10 mm
Shigella sp.
  zone of inhibition at 100000 µg/disc: 6 mm
  zone of inhibition at 150000 µg/disc: 6 mm
Pseudomonas sp.
  zone of inhibition at 100000 µg/disc: 6 mm
  zone of inhibition at 150000 µg/disc: 6 mm
Klebsiella sp.; 100 mg
  zone of inhibition at 100 mg/mL: 6 mm
Klebsiella sp.; 150 mg
  zone of inhibition at 150 mg/mL: 6 mm
Aeromonas sp.; 100 mg
  zone of inhibition at 100 mg/mL: 6 mm
Aeromonas sp.; 150 mg
  zone of inhibition at 150 mg/mL: 6 mm
Pleisiomonas sp.; 100 mg
  zone of inhibition at 100 mg/mL: 10 mm
Pleisiomonas sp.; 150 mg
  zone of inhibition at 150 mg/mL: 10 mm
Pleisiomonas sp.
  inhibition of growth: inhibited
Candida abicans; 100 mg
  zone of inhibition at 100 mg/mL: 6 mm
Candida abicans; 150 mg
  zone of inhibition at 150 mg/mL: 6 mm
Vibrio cholera
  zone of inhibition at 100000 µg/disc: 6 mm
  zone of inhibition at 150000 µg/disc: 6 mm
Citrobacter sp.; 100 mg
  zone of inhibition at 100 mg/mL: 6 mm
Citrobacter sp.; 150 mg
  zone of inhibition at 150 mg/mL: 6 mm

## COc1cc(CCC(=O)/C=C(\N)CCc2ccc(O)c(OC)c2)ccc1O [compound 9, Amino- tetrahydrocurcumin]
S. aureus; 100 mg, 6 mm = no activity
  zone of inhibition at 100 mg/mL: 6 mm
S. aureus; 150 mg, 6 mm = no activity
  zone of inhibition at 150 mg/mL: 6 mm
Enterococcus sp.; 100 mg
  zone of inhibition at 100 mg/mL: 6 mm
Enterococcus sp.; 150 mg
  zone of inhibition at 150 mg/mL: 6 mm
Salmonella typhimurium; 100 mg
  zone of inhibition at 100 mg/mL: 6 mm
Salmonella typhimurium; 150 mg
  zone of inhibition at 150 mg/mL: 6 mm
Proteus sp.; [1]
  zone of inhibition at 150 mg/mL: 6 mm
E. coli ATCC 25922
  zone of inhibition at 100 mg/mL: 6 mm
  zone of inhibition at 150 mg/mL: 6 mm
EAEC; 100 mg
  zone of inhibition at 100 mg/mL: 6 mm
EAEC; 150 mg
  zone of inhibition at 150 mg/mL: 6 mm
ETEC
  zone of inhibition at 100000 µg/disc: 9 mm
  zone of inhibition at 150000 µg/disc: 9 mm
Shigella sp.
  zone of inhibition at 100000 µg/disc: 6 mm
  zone of inhibition at 150000 µg/disc: 6 mm
Pseudomonas sp.
  zone of inhibition at 100000 µg/disc: 6 mm
  zone of inhibition at 150000 µg/disc: 6 mm
Klebsiella sp.; 100 mg
  zone of inhibition at 100 mg/mL: 6 mm
Klebsiella sp.; 150 mg
  zone of inhibition at 150 mg/mL: 6 mm
Aeromonas sp.; 100 mg
  zone of inhibition at 100 mg/mL: 6 mm
Aeromonas sp.; 150 mg
  zone of inhibition at 150 mg/mL: 6 mm
Pleisiomonas sp.; 100 mg
  zone of inhibition at 100 mg/mL: 6 mm
Pleisiomonas sp.; 150 mg
  zone of inhibition at 150 mg/mL: 6 mm
Candida abicans; 100 mg
  zone of inhibition at 100 mg/mL: 6 mm
Candida abicans; 150 mg
  zone of inhibition at 150 mg/mL: 6 mm
Vibrio cholera
  zone of inhibition at 100000 µg/disc: 6 mm
  zone of inhibition at 150000 µg/disc: 6 mm
Citrobacter sp.; 100 mg
  zone of inhibition at 100 mg/mL: 6 mm
Citrobacter sp.; 150 mg
  zone of inhibition at 150 mg/mL: 6 mm

## Demethoxycurcumin [compound 2]
S. aureus; 100 mg, 6 mm = no activity
  zone of inhibition: 11 mm
S. aureus; 150 mg, 6 mm = no activity
  zone of inhibition: 11 mm
S. aureus; concentration not given
  zone of inhibition: 11 mm
Enterococcus sp.; 100 mg
  zone of inhibition: 6 mm
Enterococcus sp.; 150 mg
  zone of inhibition: 6 mm
Salmonella typhimurium; 100 mg
  zone of inhibition: 6 mm
Salmonella typhimurium; 150 mg
  zone of inhibition: 6 mm
Proteus sp.; Proteus sp., 100 mg, 6 mm = no activity
  zone of inhibition: 12 mm
Proteus sp.; [1]
  zone of inhibition: 12 mm
Proteus sp.; Proteus species, at both concentrations of 100 mg and 150 mg
  zone of inhibition: 12 mm
E. coli ATCC 25922; 100 mg
  zone of inhibition: 6 mm
E. coli ATCC 25922; 150 mg
  zone of inhibition: 6 mm
EAEC; 100 mg
  zone of inhibition: 6 mm
EAEC; 150 mg
  zone of inhibition: 6 mm
ETEC
  inhibition of growth: significantly inhibited the growth
ETEC; 100 mg
  zone of inhibition: 12 mm
ETEC; 150 mg
  zone of inhibition: 12 mm
Shigella sp.; 100 mg
  zone of inhibition: 6 mm
Shigella sp.; 150 mg
  zone of inhibition: 6 mm
Pseudomonas sp.; 100 mg
  zone of inhibition: 6 mm
Pseudomonas sp.; 150 mg
  zone of inhibition: 6 mm
Klebsiella sp.; 100 mg
  zone of inhibition: 6 mm
Klebsiella sp.; 150 mg
  zone of inhibition: 6 mm
Aeromonas sp.; 100 mg
  zone of inhibition: 9 mm
Aeromonas sp.; 150 mg
  zone of inhibition: 9 mm
Aeromonas sp.; Aeromonas species
  inhibition of growth: inhibited the growth
Pleisiomonas sp.; 100 mg
  zone of inhibition: 11 mm
Pleisiomonas sp.; 150 mg
  zone of inhibition: 11 mm
Pleisiomonas sp.
  inhibition of growth: inhibited
Candida abicans; 100 mg
  zone of inhibition: 6 mm
Candida abicans; 150 mg
  zone of inhibition: 6 mm
Vibrio cholera; 100 mg
  zone of inhibition: 6 mm
Vibrio cholera; 150 mg
  zone of inhibition: 6 mm
Citrobacter sp.; 100 mg
  zone of inhibition: 6 mm
Citrobacter sp.; 150 mg
  zone of inhibition: 6 mm
